Test results from patent publication US20250268826A1, “IONIZABLE LIPIDOID COMPOSITIONS AND THERAPEUTIC USES THEREOF” (Flagship Pioneering Innovations VII, LLC, priority 2023, published 2025).
Values joined by “and” are separate entries in the source; they are usually repeats but may differ in a detail not shown here. Equal entries are not always repeated. One block for each compound: values may come before it.

Tests used:
[1] = LNP size and polydispersity index (PDI) by dynamic light scattering (DLS); format: physicochemical
[2] = LNP Zeta potential measured using a Zetasizer (Malvern); format: physicochemical; settings: for Zeta (mV): Vaccine Study 2, LNP with spike mRNA, 50/10/38.5/1.5 mol % ionizable lipid:helper lipid:cholesterol:DMG-PEG2k, N-to-P ratio 6; for Zeta potential (mV): LNP with hEPO mRNA, N:P ratio 6
[3] = Encapsulation efficiency (EE %) by fluorescence based Ribogreen assay; format: physicochemical
[4] = Apparent pKa of the LNPs by fluorescence based TNS assay; settings: for Apparent pKa: Vaccine Study 2, LNP with spike mRNA, 50/10/38.5/1.5 mol % ionizable lipid:helper lipid:cholesterol:DMG-PEG2k, N-to-P ratio 6
[5] = Vaccine Study 2, LNP with spike mRNA, 50/10/38.5/1.5 mol % ionizable lipid:helper lipid:cholesterol:DMG-PEG2k, N-to-P ratio 6
[6] = Table 8, LNP 50:10:38.5:1.5 mol %, hEPO mRNA, N:P 6
[7] = Table 8, LNP Lipid:DSPC:Cholesterol:DMG-PEG2k 50:10:38.5:1.5 mol %, hEPO mRNA, N:P 6
[8] = Example 19 Study 1, LNP with SARS-CoV-2 spike mRNA, N:P 6, standard mol. ratios unless noted "opt"
[9] = Table 1, LNP lipid:DSPC:Cholesterol:DMG-PEG2k 50:10:38.5:1.5 mol %, hEPO mRNA, N:P 6
[10] = Table 7, LNP 50:10:38.5:1.5 mol %, helper lipid DSPC, hEPO mRNA, N:P 6
[11] = Table 9, LNP 50:10:38.5:1.5 mol %, hEPO mRNA, N:P 6
[12] = Table 9, LNP Lipid:DSPC:Cholesterol:DMG-PEG2k 50:10:38.5:1.5 mol %, hEPO mRNA, N:P 6
[13] = Table 10, LNP with hEPO mRNA, Lipid:DSPC:Cholesterol:DMG-PEG2k 50:10:38.5:1.5 mol %, N:P ratio 6, DLS
[14] = Table 11, LNP with hEPO mRNA, Lipid:DSPC:Cholesterol:DMG-PEG2k 50:10:38.5:1.5 mol % (ALC-0315: 46.3:9.4:42.7:1.6), N:P ratio 6, HEPES/sodium chloride/sucrose buffer, stored at −80C
[15] = Table 11, Lipid:DSPC:Cholesterol:DMG-PEG2k 50:10:38.5:1.5 mol % (ALC-0315: 46.3:9.4:42.7:1.6), HEPES/sodium chloride/sucrose buffer, stored at −80C
[16] = Table 2, LNP 20:10:68.5:1.5 mol %, EGFP mRNA, N:P 2.4
[17] = Table 2, LNP 20:40:38.5:1.5 mol %, EGFP mRNA, N:P 2.4
[18] = Table 2, LNP 30:10:58.5:1.5 mol %, EGFP mRNA, N:P 3.6
[19] = Table 2, LNP 30:30:38.5:1.5 mol %, EGFP mRNA, N:P 3.6
[20] = Table 2, LNP 40:10:48.5:1.5 mol %, EGFP mRNA, N:P 4.8
[21] = Table 2, LNP 40:20:38.5:1.5 mol %, EGFP mRNA, N:P 4.8
[22] = Table 2, LNP 50:10:38.5:1.5 mol %, EGFP mRNA, N:P 6
[23] = Table 3, LNP 50:10:38.5:1.5 mol %, hEPO mRNA, N:P 6
[24] = Table 6, LNP 50:10:38.5:1.5 mol %, hEPO mRNA, N:P 6
[25] = Table 6, LNP 60:0:38.5:1.5 mol %, hEPO mRNA, N:P 6
[26] = Table 5, LNP 50:10:38.5:1.5 mol %, hEPO mRNA, N:P 6
[27] = Table 5, LNP Lipid:DSPC:Cholesterol:DMG-PEG2k 50:10:38.5:1.5 mol %, hEPO mRNA, N:P 6

Structure (SMILES): CCCCCCCCC(CCCCCC)C(=O)OCCN(CCOC(=O)C(CCCCCC)CCCCCCCC)C(=O)CCCN(CCC)CCC.Cl (centres unmarked) [Compound 981]
PDI [1, 5]: 0.054 | Size (nm) [1, 5]: 84.3 nm | Zeta (mV) [2]: −8.8 mV | EE (%) [3, 5]: 98.3% | Apparent pKa [4]: 7.3

Structure (SMILES): CCCCCCCC(CCCCCCC)C(=O)OCCN(CCOC(=O)C(CCCCCCC)CCCCCCC)C(=O)CCCN(C)C [Compound 932]
PDI [1, 6]: 0.155 | Size [1, 7]: 123.7 nm | Zeta potential [2, 6]: −9.4 mV | Encapsulation Efficiency % [3, 6]: 99.9% | pKa ([4]; Table 8, apparent pKa of LNP 50:10:38.5:1.5 mol %, hEPO mRNA, N:P 6): 6.92

Structure (SMILES): CCCCC/C=C\C/C=C\CCCCCCCCC(CCCCCCCC/C=C\C/C=C\CCCCC)OC(=O)CCCN(C)C [Dlin-MC3-DMA, dilinoleylmethyl-4-dimethylaminobutyrate, reference compound]
Apparent pKa [4]: 6.7

Structure (SMILES): CCCCCCCCCCCOC(=O)CCCCCN(CCO)CCCCCCCC(=O)OC(CCCCCCCC)CCCCCCCC [SM-102, reference compound]
PDI [1, 8]: 0.065 | Size [1, 8]: 94.8 nm | PDI [1, 9]: 0.074 | Size [1, 9]: 81.8 nm | PDI [1, 10]: 0.041 | Size ([1]; Table 7, LNP ionizable lipid:Helper Lipid:Cholesterol:DMG-PEG2k 50:10:38.5:1.5 mol %, helper lipid DSPC, hEPO mRNA, N:P 6): 75.3 nm | PDI [1, 6]: 0.042 | Size [1, 7]: 80.3 nm | PDI [1, 11]: 0.098 | Size [1, 12]: 80.7 nm | PDI [1, 13]: 0.272 | Size (nm) [1, 13]: 56.5 nm | PDI [1, 14]: 0.087 | Size (nm) [1, 14]: 69.6 nm | PDI [1, 5]: 0.127 | Size (nm) [1, 5]: 88.4 nm | Zeta potential [2, 9]: −3.729 mV | Zeta potential [2, 10]: −17.15 mV | Zeta potential [2, 6]: −9.7 mV | Zeta potential (mV) ([2]; Table 10, Lipid:DSPC:Cholesterol:DMG-PEG2k 50:10:38.5:1.5 mol %): −5.9 mV | Zeta potential (mV) [2, 15]: −1.0 mV | Zeta (mV) [2]: −4.1 mV | EE (%) [3, 8]: 91.5% | EE (%) [3, 5]: 97.8% | Apparent pKa [4]: 7.2

PDI [1, 9]: 0.223 | Size [1, 9]: 93.4 nm | PDI [1, 16]: 0.129 | PDI [1, 17]: 0.095 | PDI [1, 18]: 0.082 | PDI [1, 19]: 0.117 | PDI [1, 20]: 0.038 | PDI [1, 21]: 0.136 | PDI [1, 22]: 0.235 and 0.253 | Size ([1]; Table 2, LNP lipid:DSPC:Cholesterol:DMG-PEG2k 20:10:68.5:1.5 mol %, EGFP mRNA, N:P 2.4): 57.5 nm | Size ([1]; Table 2, LNP lipid:DSPC:Cholesterol:DMG-PEG2k 20:40:38.5:1.5 mol %, EGFP mRNA, N:P 2.4): 69.2 nm | Size ([1]; Table 2, LNP lipid:DSPC:Cholesterol:DMG-PEG2k 30:10:58.5:1.5 mol %, EGFP mRNA, N:P 3.6): 46.5 nm | Size ([1]; Table 2, LNP lipid:DSPC:Cholesterol:DMG-PEG2k 30:30:38.5:1.5 mol %, EGFP mRNA, N:P 3.6): 57 nm | Size ([1]; Table 2, LNP lipid:DSPC:Cholesterol:DMG-PEG2k 40:10:48.5:1.5 mol %, EGFP mRNA, N:P 4.8): 44.1 nm | Size ([1]; Table 2, LNP lipid:DSPC:Cholesterol:DMG-PEG2k 40:20:38.5:1.5 mol %, EGFP mRNA, N:P 4.8): 48.2 nm | Size ([1]; Table 2, LNP lipid:DSPC:Cholesterol:DMG-PEG2k 50:10:38.5:1.5 mol %, EGFP mRNA, N:P 6): 110.9 nm and 106 nm | PDI [1, 23]: 0.27 | Size ([1]; Table 3, LNP lipid:DSPC:Cholesterol:DMG-PEG2k 50:10:38.5:1.5 mol %, hEPO mRNA, N:P 6): 100.9 nm | Zeta potential [2, 9]: −3.357 mV | Zeta potential [2, 16]: −6.2 mV | Zeta potential [2, 17]: −8.876 mV | Zeta potential [2, 18]: −4.4 mV | Zeta potential [2, 19]: −9.169 mV | Zeta potential [2, 20]: −6.9 mV | Zeta potential [2, 21]: −8.503 mV | Encapsulation Efficiency % [3, 9]: 95.9% | Encapsulation Efficiency % [3, 16]: 99.7% | Encapsulation Efficiency % [3, 17]: 99.3% | Encapsulation Efficiency % [3, 18]: 99.8% | Encapsulation Efficiency % [3, 19]: 99.2% | Encapsulation Efficiency % [3, 20]: 99.7% | Encapsulation Efficiency % [3, 21]: 99.6% | Encapsulation Efficiency % [3, 22]: 99.4% and 99.8% | Encapsulation Efficiency % [3, 23]: 98.1%
Structure (SMILES): CCCCCCCCC(CCCCCC)C(=O)OCCN(CCOC(=O)C(CCCCCC)CCCCCCCC)C(=O)C(C)N (centres unmarked) [Compound 111]

PDI [1, 9]: 0.069 | Size [1, 9]: 57.7 nm | Zeta potential [2, 9]: −4.943 mV | Encapsulation Efficiency % [3, 9]: 98%
Structure (SMILES): CCCCCCCCCC(=O)OCCN(CCOC(=O)CCCCCCCCC)C(=O)C(C)N (centres unmarked) [Compound 110]

PDI [1, 24]: 0.214 | PDI [1, 25]: 0.137 | Size [1, 25]: 84.7 nm | Size ([1]; Table 6, LNP lipid:DSPC:Cholesterol:DMG-PEG2k 50:10:38.5:1.5 mol %, hEPO mRNA, N:P 6): 110.2 nm | Zeta potential [2, 24]: −0.2 mV | Zeta potential [2, 25]: 3 mV | Encapsulation Efficiency % [3, 24]: 98.3% | Encapsulation Efficiency % [3, 25]: 99.9%
Structure (SMILES): CCCCCCCCC(CCCCCC)C(=O)OCCN(CCOC(=O)C(CCCCCC)CCCCCCCC)C(=O)CCC(C)N (centres unmarked) [Compound 805]

PDI [1, 6]: 0.177 | Size [1, 7]: 75.5 nm | Zeta potential [2, 6]: −11.9 mV | Encapsulation Efficiency % [3, 6]: 91.8%
Structure (SMILES): CCCCCCCCC(CCCCCC)C(=O)OCCN(CCOC(=O)C(CCCCCC)CCCCCCCC)C(=O)C(C)CNCCC.Cl (centres unmarked) [Compound 928]

PDI [1, 6]: 0.081 | Size [1, 7]: 120.5 nm | Zeta potential [2, 6]: −14.2 mV | Encapsulation Efficiency % [3, 6]: 99.9%
Structure (SMILES): CCCCCCCCC(CCCCCC)C(=O)OCCN(CCOC(=O)C(CCCCCC)CCCCCCCC)C(=O)CCCN1CCCC1.Cl (centres unmarked) [Compound 982]

PDI [1, 14]: 0.102 | Size (nm) [1, 14]: 74.1 nm | Zeta potential (mV) [2, 15]: −2.1 mV | Encapsulation Efficiency % [3, 14]: 93.6%
Structure (SMILES): CCCCCCCC(CCCCCCC)C(=O)OCCN(CCOC(=O)C(CCCCCCC)CCCCCCC)C(=O)C(C)CCN(C)C.Cl (centres unmarked) [Compound 987b]

PDI [1, 11]: 0.15 | Size [1, 12]: 70 nm | Zeta potential [2, 11]: −28.83 mV | Encapsulation Efficiency % [3, 11]: 99.4%
Structure (SMILES): CCCCCCCCC(CCCCCC)C(=O)OCCN(CCOC(=O)C(CCCCCC)CCCCCCCC)C(=O)CN(C)CCC.Cl (centres unmarked) [Compound 969]

PDI [1, 6]: 0.172 | Size [1, 7]: 103.5 nm | Zeta potential [2, 6]: −14.9 mV | Encapsulation Efficiency % [3, 6]: 98.5%
Structure (SMILES): CCCCCCCCC(CCCCCC)C(=O)OCCN(CCOC(=O)C(CCCCCC)CCCCCCCC)C(=O)CCCN(C)CCC.Cl (centres unmarked) [Compound 939]

PDI [1, 26]: 0.183 | Size [1, 27]: 60.7 nm | Zeta potential [2, 26]: −11.63 mV | Encapsulation Efficiency % [3, 26]: 98.1%
Structure (SMILES): CCCCCCCCCCC(CCCC)C(=O)OCCN(CCOC(=O)C(CCCC)CCCCCCCCCC)C(=O)C(N)Cc1ccccc1 (centres unmarked) [Compound 619]

PDI [1, 26]: 0.443 | Size [1, 27]: 79.1 nm | Zeta potential [2, 26]: −8.485 mV | Encapsulation Efficiency % [3, 26]: 99.7%
Structure (SMILES): CCCCCCCCCC(CCCCCCCCC)C(=O)OCCN(CCOC(=O)C(CCCCCCCCC)CCCCCCCCC)C(=O)C(C)N (centres unmarked) [Compound 614]
